What all share (format): functional, cell-based
The test system of experiment [1] is Hep 3B2. The experiment in a line: Inhibition of hypoxia-induced activation of VEGF gene promoter in human Hep3B cells after 18 hrs by luciferase reporter gene assay. For orientation: Reporter assays use an easily measured gene product as a stand-in for the process of interest.
For experiment [2], the system named is Hep 3B2. The experiment in a line: Effect on luciferase reporter gene expression in human Hep3B cells after 18 hrs.
For experiment [3], the system named is Hep 3B2. The experiment in a line: Growth inhibition of human Hep3B cells after 18 hrs.
Experiment [4] has as its system Hep 3B2. The experiment in a line: Inhibition of hypoxia-induced VEGF165 protein secretion in human Hep3B cells after 18 hrs by ELISA. For orientation: In an ELISA, binding on a coated surface is turned into a signal by an enzyme label.

Calls of active or inactive are those of the source. No cut-off for these calls is given here.

As for `COC1CC(=O)c2c(C=O)cc(C)cc21` (centres undefined), in experiment [1], inhibition was half-maximal at 25 µM (IC50). In addition, the outcome in experiment [2], in experiment [3] and in experiment [4] was inactive.

The values above are taken from ChEMBL document CHEMBL1155610, “A new indanone from the marine cyanobacterium Lyngbya majuscula that inhibits hypoxia-induced activation of the VEGF promoter in Hep3B cells” (J Nat Prod, 2000).
